Data published in patent US7312302B2, “Compositions for the detection of enzyme activity in biological samples and methods of use thereof” (Oncolmmunin, Inc., priority 1997, dated 2007).
Non-standard residues stand in square brackets, D forms with d. Primed or numbered codes have the meaning given here. No end group written: not given here. *: point of attachment. F1 = 5-carboxytetramethylrhodamine (donor fluorophore); F1(3) = carboxytetramethylrhodamine; Fmoc = O=C(OCC1c2ccccc2-c2ccccc21)*; code B = not defined here; code J = not defined here; Cbz = O=C(OCc1ccccc1)*; F1″ = not defined here; C5 = not defined here

Tested on: not listed separately
Experiment: Ground-state (H-type) dimer formation by absorption spectroscopy
Type: physicochemical
Conditions: homodoubly-labeled peptides
Description: This was indicated by shift of absorption maxima to shorter wavelengths as well as a shape change of the absorption spectra as compared with the spectra for the enzyme digested doubly-labeled samples. Upon cleavage with elastase, the ground-state dimers were destroyed and the resulting spectra were the same as a solution containing equal concentrations of the respective singly labeled peptides.
For example, NorFes, an undecapeptide which is cleaved by the serine protease elastase, was homodoubly labeled on opposite sides of its cleavage site with six fluorophores in order to identify structural elements of dyes which influence intramolecular H-type dimer formation.
For `c1cc2ccc3cccc4ccc(c1)c2c34` [pyrene], the “dye-dye (ground-state, H-type) dimer formation / spectral change” value was “No spectral changes were observed”.
With “F1-DEVDGIDPK[F1]GY ({F1(3)}-DEVDGIDPK(F1(3))GY)” the “dye-dye (ground-state, H-type) dimer formation / spectral change” value was “did not allow the formation of productive H-type dimers”.
For “F1-PDEVDGIDPK[F1]GY ({F1(3)}-PDEVDGIDPK(F1(3))GY)”, the “dye-dye (ground-state, H-type) dimer formation / spectral change” value was “did not allow the formation of productive H-type dimers”.

Target: T1, CPP32 protease (Homo sapiens, UniProt P42574)
T1 construct: served as a direct measure of the intracellular CPP32 protease activity; endogenous in cells
T1 sequence (P42574 29-277): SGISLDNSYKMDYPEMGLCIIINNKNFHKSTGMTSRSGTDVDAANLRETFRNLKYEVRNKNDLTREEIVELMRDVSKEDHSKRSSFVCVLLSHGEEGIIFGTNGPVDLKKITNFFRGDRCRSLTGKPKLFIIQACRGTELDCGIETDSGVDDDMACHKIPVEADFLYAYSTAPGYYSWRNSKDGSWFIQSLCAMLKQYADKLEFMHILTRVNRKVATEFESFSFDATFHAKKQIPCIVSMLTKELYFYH
Experiment: Cell lysate hydrolysis of DEVD-AFC, competitive substrate inhibition (anti-Fas-stimulated Jurkat cell lysate)
Type: biochemical
Conditions: concentration raised to 25 μM; 50 μM DEVD-AFC, 37° C.
Method: The level of CPP32 protease activity in the 6 hr ant-Fas-stimulated Jurkat cell lysate was examined using the protease substrate, DEVD-AFC (where AFC is aminofluoromethyl coumarin) 50 μM substrate concentration at 37° C. The buffer used was 50 mM HEPES, pH7.5, 10% w/v sucrose, 0.1% w/v CHAPS.) Fluorescence intensity changes were monitored with an SLM 48000 spectrofluorometer. […] As the concentrations of DEVD, DEVN, and ICE were raised to 25 μM, the rate of DEVD-AFC hydrolysis was decreased.
In the case of “K[F1]DBDEVDGIDPK[F1]GY (K(F1″)D[code B]DEVDGIDPK(F1″)GY; reading uncertain; also: printed as K[F1]DBDEVDGIDPK[F1]GY) [Compound 5]”, the “rate of DEVD-AFC hydrolysis in presence of substrate” value (“rate of DEVD-AFC hydrolysis” below) is reported as “decreased”.
In the case of “K[F1]DBDEVNGIDPK[F1]GY (K(F1″)D[code B]DEVNGIDPK(F1″)GY; reading uncertain; also: printed as K[F1]DBDEVNGIDPK[F1]GY) [Compound 7]”, the “rate of DEVD-AFC hydrolysis” value is reported as “decreased”.
For “K[F1]DYBADGIDPK[F1]GY (K(F1″)DY[code B]ADGIDPK(F1″)GY; reading uncertain; also: printed as K[F1]DYBADGIDPK[F1]GY) [Compound 9]”, the “rate of DEVD-AFC hydrolysis” value was “decreased”.

Tested on: Jurkat cells, HL-60 cells, human lymphocyte lines, A1.1 cells, murine primary thymocytes
Experiment: Cellular uptake of substrates by fluorescence microscopy, flow cytometry, HPLC
Type: cell-based
Conditions: viable cells
Method: The compounds listed in Table 6 were synthesized and assayed for cellular uptake. Cellular internalization of the substrates was tested using Jurkat cells (a human acute T cell leukemic line), HL-60 cells (a human promyelocytic leukemic line), human lymphocyte lines, A1.1 cells (a murine T-cell line), and murine primary thymocytes. Procedures used in determining substrate uptake by viable cells are provided in Example 6 (for the HPLC procedures), in Example 2 (for the fluorescence microscopic analysis), and in Example 3 (for the flow cytometric analysis) a summary of these analyses with respect to cellular uptake of substrates is presented in this example.
The elastase substrate, Fm—K[F1]DAIPNluSIPK[F1]GY (SEQ ID NO:185), (where F1 was carboxytetramethylrhodamine, Fm was Fmoc, K[F1] was F1 covalently attached through the epsilon amino group of lysine (K), and Fm—K is the Fmoc group covalently attached at the alpha amino group of the amino terminal lysine residue) was used with HL-60 cells. Cells were incubated with various concentrations of elastase substrate ranging from 10 nM to 10 μM for 5 minutes to 60 minutes. Then the cells were diluted 5-fold with RPMI 1640 medium containing 5% serum or with phosphate buffered saline. The samples were centrifuged and washed once more with 1 ml of washing solution. After centrifugation and removal of the washing solution, cell pellets were loosened with about 25 ul of medium and these cells were transferred to a glass capillary. Capillary tubes were then placed on a glass microscope slide and examined under a fluorescence microscope using standard rhodamine filters.
For apoptosis-related protease activity determination, 10 μM concentration of the compounds listed in Example 8 (compound structures 2 through 13) were incubated with cells for 30 min. to 3 hours. The cells were then washed similarly twice. Using glass capillary tubes, the washed cells were transferred and examined under a fluorescence microscope.
The concentration of substrates used in flow cytometric analysis was 10 M in RPMI1640 medium containing 4 to 10% fetal calf serum. Cell densities during incubation with the chosen substrates ranged from 50,000 cells per ml to 4,000,000 per ml. Incubation times were from 30 min. to 3 hours at 37° C. and incubation volumes were 50 μL to 2 ml. After incubation with substrate for 30 to 60 min. cell suspensions were diluted 10-fold with ice cold Hank's Buffered Saline Solution (HBSS). This filtered cell suspension was then subjected to flow cytometric analysis using a 488 nm excitation source. Becton Dickenson, Inc.'s flow cytometer, FacSort, was used in the flow cytometric analysis. Typically, 10,000 to 30,000 events per sample were collected.
For Fm-DAIPNluSIPK[F1]GY [Compound 3], the “cellular uptake (Table 6)” value was “does not result in significant cellular uptake”.
In the case of Fm-K[F1]DAIPNluSIPK[F1]GY [Compound 1], the “cellular uptake (Table 6)” value is reported as “efficient cellular uptake”.
For “Fm-K[F1]DBDEVDGIDPK[F1]GY (Fmoc-K(F1″)D[code B]DEVDGIDPK(F1″)GY; reading uncertain; also: printed as Fm-K[F1]DBDEVDGIDPK[F1]GY) [Compound 4]”, the “cellular uptake (Table 6)” value was “efficient cellular uptake”.
For “Fm-K[F1]DBDEVNGIDPK[F1]GY (Fmoc-K(F1″)D[code B]DEVNGIDPK(F1″)GY; reading uncertain; also: printed as Fm-K[F1]DBDEVNGIDPK[F1]GY) [Compound 6]”, the “cellular uptake (Table 6)” value was “efficient cellular uptake”.
With “Fm-K[F1]DBEVDGIDPK[F1]GY (Fmoc-K(F1″)D[code B]EVDGIDPK(F1″)GY; reading uncertain; also: printed as Fm-K[F1]DBEVDGIDPK[F1]GY) [Compound 8]” the “cellular uptake (Table 6)” value was “efficient cellular uptake”.
For “Fm-K[F1]DBGDEVDGIDGPK[F1]GY (K(F1)D[code B]GDEVDGIDGPK(F1)GY; not fully specified (N-terminus); printed as Fm-K[F1]DBGDEVDGIDGPK[F1]GY; reading uncertain) [Compound 10]”, the “cellular uptake (Table 6)” value was “efficient cellular uptake”.
In the case of K[F1]DAIPNluSIPK[F1]GY [Compound 2], the “cellular uptake (Table 6)” value is reported as “not optimum for cellular uptake”.
In the case of “K[F1]DBDEVDGIDPK[F1]GY (K(F1″)D[code B]DEVDGIDPK(F1″)GY; reading uncertain; also: printed as K[F1]DBDEVDGIDPK[F1]GY) [Compound 5]”, the “cellular uptake (Table 6)” value is reported as “not optimum for cellular uptake”.
For “K[F1]DBDEVNGIDPK[F1]GY (K(F1″)D[code B]DEVNGIDPK(F1″)GY; reading uncertain; also: printed as K[F1]DBDEVNGIDPK[F1]GY) [Compound 7]”, the “cellular uptake (Table 6)” value was “not optimum for cellular uptake”.
For “K[F1]DYBADGIDPK[F1]GY (K(F1″)DY[code B]ADGIDPK(F1″)GY; reading uncertain; also: printed as K[F1]DYBADGIDPK[F1]GY) [Compound 9]”, the “cellular uptake (Table 6)” value was “not optimum for cellular uptake”.
In the case of “Z-K[F1]DBJGDEVDGIDGJPK[F1]GY (Cbz-K(F1″)D[code B][code J]GDEVDGIDG[code J]PK(F1″)GY; reading uncertain; also: printed as Z-K[F1]DBJGDEVDGIDGJPK[F1]GY) [Compound 12]”, the “cellular uptake (Table 6)” value is reported as “efficient cellular uptake”.

Tested on: not given
Experiment: not given
Conditions: doubly labeled NorFes, Packard et al. 1998; cited from earlier work
In the case of `CN(C)c1ccc2c(-c3ccccc3C(=O)[O-])c3ccc(N(C)C)cc3[o+]c2c1` [tetramethylrhodamine], the “free energy of activation of disruption of homodimers” value is listed as “at least 1.7 kcal/mole”.
In the case of diethylrhodamine, the “free energy of activation of disruption of homodimers” value is given as 2.4 kcal/mol.

Same assay, conditions: free dye in solution; cited from earlier work
For `O=C1OC2(c3ccccc31)c1cc(Br)c(O)c(Br)c1Oc1c2cc(Br)c(O)c1Br` [Eosin], the “concentration above which ground-state dimerization of free dye in solution was observed” value is listed as “higher than 2.8×10^−2 M”.
In the case of `CCN(CC)c1ccc2c(-c3ccccc3C(=O)O)c3ccc(=[N+](CC)CC)cc-3oc2c1.[Cl-]` [Rhodamine B], the “concentration above which ground-state dimerization of free dye in solution was observed” value is listed as “higher than 6×10^−4 M”.

Tested on: DEVDase activity (caspase 3/7)
Experiment: DEVDase activity in apoptotic thymocyte extract using PhiPhiLux substrate, with protease inhibitors
Type: biochemical, mouse
Conditions: apoptotic thymocyte extract, FIG. 5
Method: FIG. 5 illustrates the inhibition of DEVDase activity in apoptotic thymocyte extract using PhiPhiLux™ substrate. An extract of mouse thymocytes exposed to 0.1 mM dexamethasone for 6 h was incubated in fluorometer cuvettes at 37° C. with 10 mM PhiPhiLux™ substrate with or without the indicated protease inhibitors. Enzymatic activity was calculated from the rate of increase of fluorescence.
Single cell suspensions of thymocytes were cultured in RPMI 1640 with 10% FCS at a concentration of 10 6 cells/ml. Dexamethasone (final concentration, 0.1 mM) and ZVAD (OMe)FMK (final concentration, 50 mM) were added at the indicated times from stock solutions in DMSO (100 mM for dexamethasone and 200 mM for ZVAD[OMe]FMK). For antiFas stimulation, wells in a 24 well plate were coated with antiFas antibody (20 mg/ml; […] per well) overnight at 378 C. After twice washing the wells with medium containing 10% FCS, 4 3 10 6 thymocytes were added per well. After culture at 378 C in a 5% CO2 atmosphere for the indicated times, cells were centrifuged and resuspended in 75 ml of each substrate (10 mM) in 1.5 ml Eppendorf tubes. The open tubes were placed in the CO2 incubator for an additional 60 min. After washing in saline, cells were analyzed by flow cytometry. Caspase activity measurements in extracts with several known inhibitors and noninhibitors were carried out using fluorometers from Photon Technology International and SLMAMINCO. Cell lysates were prepared using a cell lysate buffer consisting of 50 mM Hepes, pH 7.5, 10% (wt/vol) sucrose, 0.1% (wt/vol) CHAPS, 0.5% (wt/vol) Triton X100, and 10 mM DTT. The substrate (10 mM) was prepared in 50 mM Hepes, pH 7.5, with 10 mM DTT. All measurements were made at 378 C using a thermostated cell holder in a 150 ml quartz cuvette (3 3 3. 45 mm; Starna Cells, Inc.). The temperature of the substrate solution was preequilibrated for 20 min, ensuring temperature equilibration by having a flat base line before cell lysate addition. A 10 ml aliquot from an apoptotic thymocyte lysate was added to 110 ml of substrate solution. The fluorescence intensity was then monitored for 30-60 min. The initial velocity was calculated from the linear portion of the fluorescence increase. Various amounts of inhibitors were added to the cell lysate for 20 min before addition of the cell lysate mixture to the substrate solution.
The caspase substrates used in these studies were based on optimal peptide recognition motifs for various caspases as reported by peptide library studies (2) and are described in Table I. To assess whether cleavage of these substrates in apoptotic thymocytes was due to caspases, we examined extracts from untreated fresh thymocytes, or from thymocytes treated with dexamethasone.
In the case of `CC(C)C[C@H](NC(=O)[C@H]1O[C@@H]1C(=O)O)C(=O)NCCCCN=C(N)N` [Compound E64], the “inhibition of apoptotic DEVDase activity” value is reported as “lack of inhibition”.
For `CC(=O)N[C@@H](CC(=O)O)C(=O)N[C@@H](CCC(=O)O)C(=O)N[C@H](C(=O)N[C@H](C=O)CC(=O)O)C(C)C` [DEVDCHO], the “inhibition of apoptotic DEVDase activity” value was “complete inhibition”.
In the case of `NC(=O)CI` [iodoacetamide], the “inhibition of apoptotic DEVDase activity” value is reported as “inhibition”.
For `CC(=O)N[C@@H](CC(C)C)C(=O)N[C@@H](CC(C)C)C(=O)N[C@H](C=O)CCCNC(=N)N` [leupeptin], the “inhibition of apoptotic DEVDase activity” value was “lack of inhibition”.

Same assay, conditions: on a cell basis
With “KDPC5GDEVDGIDGC5PKGY (KDP[C5]GDEVDGIDG[C5]PKGY; reading uncertain; also: printed as KDPC5GDEVDGIDGC5PKGY) [PhiPhiLux, cell-permeable fluorogenic caspase 3/7 substrate from OncoImmunin, Inc]” the “cleavage by apoptotic thymocyte extracts relative to fresh thymocyte extracts” value was 25 fold.
